Broadly, the IC50 is the concentration needed to halve the response being measured.

Structures are written as SMILES.

Results on 18 compounds are retold here after patent publication US7491819B1 (priority 2004, dated 2009).

For the test, the target named is T1, HIV-integrase (Human immunodeficiency virus type 1 group M subtype B, UniProt P12497).
T1 construct: Recombinant integrase (0.26 ng) was incubated with the beads
Nature of the test: HIV-Integrase Inhibition Activity (SPA bead strand-transfer assay). The format is biochemical. The following applies: Table 1; read-out: Activity (HIV-integrase inhibition, IC50 class). How it is done: HIV-Integrase Inhibition Activity. To evaluate in-vitro activity against HIV-integrase, 5 pmole of biotin labeled substrate DNA was bound to 100 μg of Streptavidin coated PVT SPA beads (Amersham Pharmacia Biotech). Recombinant integrase (0.26 ng) was incubated with the beads for 90 min at 37° C. Unbound enzyme was removed by washing the complex followed by addition of inhibitors and 0.1 fmol of P33 labeled target DNA. The reaction was stopped by adding EDTA to a final concentration of 10 mM. Samples were counted in TopCountNXT (Packard) and the CPM was used as a measure of integration. The reaction condition was as described in A. Engelman and R. Craigie, J. Virol 69, 5908-5911 (1995). The sequences of substrate and target DNA were described in Nucleic Acid Research 22, 1121-1122 (1994).

Consider `CC1(C)OCCn2c1nc(C(=O)NCc1ccc(F)cc1-n1cnc(C(=O)NS(C)(=O)=O)n1)c(O)c2=O` [Example 64, Pyrimido[2,1-c][1,4]oxazine-2-carboxamide, N-[[4-fluoro-2-[3-[[(methylsulfonyl)amino]carbonyl]-1H-1,2,4-triazol-1-yl]phenyl]methyl]-4,6,7,9-tetrahydro-3-hydroxy-9,9-dimethyl-4-oxo-], for which the IC50 lay within 2 to 100 nM.

Take `CNC(=O)c1ncn(-c2cc(F)ccc2CNC(=O)c2nc3n(c(=O)c2O)CCOC3(C)C)n1` [Example 65, Pyrimido[2,1-c][1,4]oxazine-2-carboxamide, 4,6,7,9-tetrahydro-3-hydroxy-N-[(1R)-2-hydroxy-1-phenylethyl]-9,9-dimethyl-4-oxo-]: the IC50 fell in the range of 2 to 100 nM.

For `CC(=O)N1CCN(C(=O)c2ncn(-c3cc(F)ccc3CNC(=O)c3nc4n(c(=O)c3O)CCOC4(C)C)n2)CC1` [Example 66, Pyrimido[2,1-c][1,4]oxazine-2-carboxamide, N-[[2-[3-[(4-acetyl-1-piperazinyl)carbonyl]-1H-1,2,4-triazol-1-yl]-4-fluorophenyl]methyl]-4,6,7,9-tetrahydro-3-hydroxy-9,9-dimethyl-4-oxo-], the IC50 fell in the range of 2 to 100 nM.

As to `CN(CCO)C(=O)c1ncn(-c2cc(F)ccc2CNC(=O)c2nc3n(c(=O)c2O)CCOC3(C)C)n1` [Example 67, Pyrimido[2,1-c][1,4]oxazine-2-carboxamide, N-[[4-fluoro-2-[3-[[(2-hydroxyethyl)methylamino]carbonyl]-1H-1,2,4-triazol-1-yl]phenyl]methyl]-4,6,7,9-tetrahydro-3-hydroxy-9,9-dimethyl-4-oxo-], the IC50 lay within 2 to 100 nM.

As for `CC1(C)OCCn2c1nc(C(=O)NCc1ccc(F)cc1-n1cnc(C(=O)NS(=O)(=O)c3ccc(F)cc3)n1)c(O)c2=O` [Example 68, Pyrimido[2,1-c][1,4]oxazine-2-carboxamide, N-[[4-fluoro-2-[3-[[[(4-fluorophenyl)sulfonyl]amino]carbonyl]-1H-1,2,4-triazol-1-yl]phenyl]methyl]-4,6,7,9-tetrahydro-3-hydroxy-9,9-dimethyl-4-oxo-], the IC50 is 2 to 100 nM.

On to `CN1CCN(C(=O)c2ncn(-c3cc(F)ccc3CNC(=O)c3nc4n(c(=O)c3O)CCOC4(C)C)n2)CC1` [Example 69, Pyrimido[2,1-c][1,4]oxazine-2-carboxamide, N-[[4-fluoro-2-[3-[(4-methyl-1-piperazinyl)carbonyl]-1H-1,2,4-triazol-1-yl]phenyl]methyl]-4,6,7,9-tetrahydro-3-hydroxy-9,9-dimethyl-4-oxo-], for which the IC50 is 2 to 100 nM.

Turning to `CN(C)CCNC(=O)c1ncn(-c2cc(F)ccc2CNC(=O)c2nc3n(c(=O)c2O)CCOC3(C)C)n1` [Example 70, Pyrimido[2,1-c][1,4]oxazine-2-carboxamide, N-[[2-[3-[[[2-(dimethylamino)ethyl]amino]carbonyl]-1H-1,2,4-triazol-1-yl]-4-fluorophenyl]methyl]-4,6,7,9-tetrahydro-3-hydroxy-9,9-dimethyl-4-oxo-], the IC50 was in the range of 2 to 100 nM.

In the case of `CN(C)CCN(C)C(=O)c1ncn(-c2cc(F)ccc2CNC(=O)c2nc3n(c(=O)c2O)CCOC3(C)C)n1` [Example 71, Pyrimido[2,1-c][1,4]oxazine-2-carboxamide, N-[[2-[3-[[[2-(dimethylamino)ethyl]methylamino]carbonyl]-1H-1,2,4-triazol-1-yl]-4-fluorophenyl]methyl]-4,6,7,9-tetrahydro-3-hydroxy-9,9-dimethyl-4-oxo-], the IC50 was in the range of 2 to 100 nM.

Take `CC1(C)OCCn2c1nc(C(=O)NCc1ccc(F)cc1-n1cnc(C(=O)NCCO)n1)c(O)c2=O` [Example 72, Pyrimido[2,1-c][1,4]oxazine-2-carboxamide, N-[[4-fluoro-2-[3-[[(2-hydroxyethyl)amino]carbonyl]-1H-1,2,4-triazol-1-yl]phenyl]methyl]-4,6,7,9-tetrahydro-3-hydroxy-9,9-dimethyl-4-oxo-]: the IC50 lay within 2 to 100 nM.

With `CC1(C)OCCn2c1nc(C(=O)NCc1ccc(F)cc1I)c(O)c2=O` [Example 73, Pyrimido[2,1-c][1,4]oxazine-2-carboxamide, N-[(4-fluoro-2-iodophenyl)methyl]-4,6,7,9-tetrahydro-3-hydroxy-9,9-dimethyl-4-oxo-], the IC50 lay in the range of 2 to 100 nM.

In the case of `CC1(C)OCCn2c1nc(C(=O)NCc1ccc(F)cc1-c1ccccc1)c(O)c2=O` [Example 74, Pyrimido[2,1-c][1,4]oxazine-2-carboxamide, N-[(5-fluoro[1,1′-biphenyl]-2-yl)methyl]-4,6,7,9-tetrahydro-3-hydroxy-9,9-dimethyl-4-oxo-], the IC50 fell in the range of 2 to 100 nM.

For the compound `CC1(C)OCCn2c1nc(C(=O)NCc1ccc(F)cc1-c1cccnc1)c(O)c2=O` [Example 75, Pyrimido[2,1-c][1,4]oxazine-2-carboxamide, N-[[4-fluoro-2-(3-pyridinyl)phenyl]methyl]-4,6,7,9-tetrahydro-3-hydroxy-9,9-dimethyl-4-oxo-], the IC50 was in the range of 2 to 100 nM.

With `COc1ccc(-c2cc(F)ccc2CNC(=O)c2nc3n(c(=O)c2O)CCOC3(C)C)cn1` [Example 77, Pyrimido[2,1-c][1,4]oxazine-2-carboxamide, N-[[4-fluoro-2-(6-methoxy-3-pyridinyl)phenyl]methyl]-4,6,7,9-tetrahydro-3-hydroxy-9,9-dimethyl-4-oxo], the IC50 is 2 to 100 nM.

Consider `CC1(C)OCCn2c1nc(C(=O)NCc1ccc(F)cc1-c1ccc[nH]c1=O)c(O)c2=O` [Example 78, Pyrimido[2,1-c][1,4]oxazine-2-carboxamide, N-[[2-(1,2-dihydro-2-oxo-3-pyridinyl)-4-fluorophenyl]methyl]-4,6,7,9-tetrahydro-3-hydroxy-9,9-dimethyl-4-oxo-], for which the IC50 was 2 to 100 nM.

Consider `CC1(C)OCCn2c1nc(C(=O)NCc1ccc(F)cc1-c1ccc(=O)[nH]c1)c(O)c2=O` [Example 79, Pyrimido[2,1-c][1,4]oxazine-2-carboxamide, N-[[2-(1,6-dihydro-6-oxo-3-pyridinyl)-4-fluorophenyl]methyl]-4,6,7,9-tetrahydro-3-hydroxy-9,9-dim ethyl-4-oxo-], for which the IC50 fell in the range of 2 to 100 nM.

As to `CC1(C)OCCn2c1nc(C(=O)NCc1ccc(F)cc1-c1cccc(=O)[nH]1)c(O)c2=O` [Example 80, Pyrimido[2,1-c][1,4]oxazine-2-carboxamide, N-[[2-(1,6-dihydro-6-oxo-2-pyridinyl)-4-fluorophenyl]methyl]-4,6,7,9-tetrahydro-3-hydroxy-9,9-dimethyl-4-oxo-], the IC50 was 2 to 100 nM.

Consider `Cc1ncn(-c2cc(F)ccc2CNC(=O)c2nc3n(c(=O)c2O)CCOC3(C)C)n1` [Example 81, Pyrimido[2,1-c][1,4]oxazine-2-carboxamide, N-[[4-fluoro-2-(3-methyl-1H-1,2,4-triazol-1-yl)phenyl]methyl]-4,6,7,9-tetrahydro-3-hydroxy-9,9-dimethyl-4-oxo-], for which the IC50 was 2 to 100 nM.

With `Cc1ncnn1-c1cc(F)ccc1CNC(=O)c1nc2n(c(=O)c1O)CCOC2(C)C` [Example 82, Pyrimido[2,1-c][1,4]oxazine-2-carboxamide, N-[[4-fluoro-2-(5-methyl-1H-1,2,4-triazol-1-yl)phenyl]methyl]-4,6,7,9-tetrahydro-3-hydroxy-9,9-dimethyl-4-oxo-], the IC50 fell in the range of 2 to 100 nM.
